In ChEMBL document CHEMBL5137086, “Discovery of 1-(Hetero)aryl-β-carboline Derivatives as IDO1/TDO Dual Inhibitors with Antidepressant Activity” (J Med Chem, 2022):

What was measured:
[1] = molecular target: T1, Indoleamine 2,3-dioxygenase 1 (Homo sapiens, UniProt P14902); assay: Inhibition of IDO1 (unknown origin) assessed as reduction in kynurenine production using L-tryptophan as substrate at 50 uM incubated for 1 hr by absorbance based microplate reader analysis relative to control
Target sequence in this assay (P14902 whole entry, looked up): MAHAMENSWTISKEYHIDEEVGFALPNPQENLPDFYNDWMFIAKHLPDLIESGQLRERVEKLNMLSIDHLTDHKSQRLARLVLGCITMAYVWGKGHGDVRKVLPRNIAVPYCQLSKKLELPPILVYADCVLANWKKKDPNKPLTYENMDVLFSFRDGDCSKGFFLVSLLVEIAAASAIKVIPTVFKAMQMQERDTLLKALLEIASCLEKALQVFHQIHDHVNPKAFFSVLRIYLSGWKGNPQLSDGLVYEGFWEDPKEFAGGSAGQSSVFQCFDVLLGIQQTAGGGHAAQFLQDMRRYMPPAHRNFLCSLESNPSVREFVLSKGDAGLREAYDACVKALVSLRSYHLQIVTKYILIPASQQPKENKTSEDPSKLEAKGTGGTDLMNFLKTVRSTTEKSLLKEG

[2] = molecular target: T2, Tryptophan 2,3-dioxygenase (Homo sapiens, UniProt P48775); assay: Inhibition of TDO (unknown origin) assessed as reduction in N-formylkynurenine formation using L-tryptophan as substrate at 50 uM incubated for 75 mins by UV absorbance based analysis relative to control
Target sequence in this assay (P48775 whole entry, looked up): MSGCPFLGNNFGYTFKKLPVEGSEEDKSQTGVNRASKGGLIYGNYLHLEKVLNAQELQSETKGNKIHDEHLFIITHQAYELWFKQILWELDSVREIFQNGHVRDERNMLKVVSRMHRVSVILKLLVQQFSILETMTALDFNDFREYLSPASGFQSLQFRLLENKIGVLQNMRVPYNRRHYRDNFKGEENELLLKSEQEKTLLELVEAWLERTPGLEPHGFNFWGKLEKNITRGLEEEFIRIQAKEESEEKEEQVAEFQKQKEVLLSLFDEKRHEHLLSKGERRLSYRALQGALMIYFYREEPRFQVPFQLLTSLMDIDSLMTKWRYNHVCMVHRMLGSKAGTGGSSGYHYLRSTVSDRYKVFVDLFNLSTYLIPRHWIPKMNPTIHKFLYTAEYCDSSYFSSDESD

[3] = molecular target: T2, Tryptophan 2,3-dioxygenase; assay: Inhibition of TDO (unknown origin) assessed as reduction in N-formylkynurenine formation using L-tryptophan as substrate incubated for 75 mins by UV absorbance based analysis
Target sequence in this assay (P48775 whole entry): as the sequence (P48775 whole entry, looked up) above

[4] = molecular target: T1, Indoleamine 2,3-dioxygenase 1; assay: Inhibition of IDO1 (unknown origin) assessed as reduction in kynurenine production using L-tryptophan as substrate incubated for 1 hr by absorbance based microplate reader analysis
Target sequence in this assay (P14902 whole entry): as the sequence (P14902 whole entry, looked up) above

| Compound | inhibition [1] | inhibition [2] | IC50 [3] | IC50 [4] |
| --- | --- | --- | --- | --- |
| c1ccc2c(c1)[nH]c1c(-c3ccoc3)nccc12 | 5% | 92% | 1.14 µM | – |
| Fc1cccc(-c2nccc3c2[nH]c2ccccc23)c1 | 28% | 86% | 10.9 µM | – |
| c1csc(-c2nccc3c2[nH]c2ccccc23)c1 | 61% | 82% | 10.8 µM | > 50 µM |
| O=[N+]([O-])c1ccc(-c2nccc3c2[nH]c2ccccc23)cc1 | 94% | 3% | – | 8.44 µM |
| c1ccc2c(c1)[nH]c1c(-c3cscn3)nccc12 | 3% | 4% | – | – |
| Oc1ccc(-c2nccc3c2[nH]c2ccccc23)cc1 | 24% | 4% | – | – |
| O=[N+]([O-])c1cccc(-c2nccc3c2[nH]c2ccccc23)c1 | 96% | 6% | – | 8.28 µM |
| FC(F)(F)c1ccc(-c2nccc3c2[nH]c2ccccc23)cc1 | 13% | 5% | – | – |
| c1ccc2c(c1)[nH]c1c(-c3ccsc3)nccc12 | 34% | 94% | 0.81 µM | – |
| c1ccc2c(c1)[nH]c1c(-c3cnn[nH]3)nccc12 | 91% | 77% | 19.5 µM | 13.9 µM |
| N#Cc1ccc(-c2nccc3c2[nH]c2ccccc23)cc1 | 53% | 75% | 12 µM | > 50 µM |
| Cc1nccc2c1[nH]c1ccccc12 [HARMAN] | 34% | 85% | 6.31 µM | – |
| c1ccc2c(c1)[nH]c1c(-c3nccs3)nccc12 | 5% | 2% | – | – |
| c1ccc2c(c1)[nH]c1c(-c3cc[nH]n3)nccc12 | 34% | 7% | – | – |
| c1ccc2c(c1)[nH]c1c(-c3ncc[nH]3)nccc12 | 26% | 4% | – | – |
| c1cncc(-c2nccc3c2[nH]c2ccccc23)c1 | 26% | 89% | 2.14 µM | – |
| c1ccc(-c2nccc3c2[nH]c2ccccc23)cc1 | 7% | 86% | 7.24 µM | – |
| Brc1cccc(-c2nccc3c2[nH]c2ccccc23)c1 | 93% | 65% | 20.3 µM | 4.95 µM |
| Fc1ccc(-c2nccc3c2[nH]c2ccccc23)cc1 | 27% | 3% | – | – |
| Clc1cccc(-c2nccc3c2[nH]c2ccccc23)c1 | 55% | 88% | 13.4 µM | > 50 µM |
| c1ccc2c(c1)[nH]c1c(-c3ccncc3)nccc12 | 46% | 36% | – | – |
| c1ccc2c(c1)[nH]c1cnccc12 [NORHARMANE] | 48% | 86% | 1.2 µM | – |
| Brc1ccc(-c2nccc3c2[nH]c2ccccc23)cc1 | 51% | 5% | – | > 50 µM |
| Clc1cc(Cl)cc(-c2nccc3c2[nH]c2ccccc23)c1 | 75% | 8% | – | 16.5 µM |
| c1coc(-c2nccc3c2[nH]c2ccccc23)c1 | 33% | 37% | – | – |
| O=C1CC(c2c[nH]c3ccc(F)cc23)C(=O)N1 (stereo unspecified) | 92% | – | – | – |
| N#Cc1cccc(-c2nccc3c2[nH]c2ccccc23)c1 | 66% | 78% | 15.3 µM | > 50 µM |
| FC(F)(F)c1cccc(-c2nccc3c2[nH]c2ccccc23)c1 | 9% | 88% | 5.39 µM | – |
| Fc1cc(-c2nccc3c2[nH]c2ccccc23)ccc1Br | 71% | 4% | – | 32.7 µM |
| Clc1ccc(-c2nccc3c2[nH]c2ccccc23)cc1 | 86% | 81% | 8.29 µM | 7.58 µM |
